The text below walks through data of US10975037B2 (priority 2018, dated 2021).

Where a name gives a salt, the structure may show the parent alone. Read-outs that look alike come from different tables or passages of the source.

For orientation: inhibition means the drop in the measured response relative to a control, in per cent. As a reminder, the IC50 is the concentration at which inhibition is half-maximal. A lower IC50 goes with higher potency. Broadly, the Kd is the constant that tells how readily two partners part at equilibrium.

In one test the target is full-length human RORγt (Homo sapiens (Human), UniProt P51449). The test is described as follows: RORγt (full-length human) reporter assay, conditions A or B, HEK293T cells. To be noted: for inhibition at 3 µM: 3 μM compound concentration (footnote *); for IC50: RORγt (FL) Reporter Assay A or B, IC50, HEK293T cells; for inhibition at 6 µM: read-out: RORγt (FL) Reporter Assay A or B, % inhibition @ 6 μM. In kind it is cell-based. A digest of the protocol: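 Dual-luciferase read-out was taken after an overnight (16–20 h) compound exposure. Firefly data were scaled between DMSO-only and saturating reference compound, Renilla-normalized, then plotted against concentration for IC50.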
In general terms: Reporter assays use an easily measured gene product as a stand-in for the process of interest.

In test [1] the target is human RORγt ligand binding domain (RORγt LBD) (Homo sapiens (Human), UniProt P51449). The test is described as follows: RORγt ThermoFluor® assay (thermal shift binding). Put shortly: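 Thermal shift with 0.065 mg/mL RORγt LBD and 60 μM 1,8-ANS in 100 mM Hepes pH 7.0, 10 mM NaCl, 2.5 mM GSH, 0.002% Tween-20.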
In general terms: In DSF a fluorescence change marks the thermal transition of the protein.

Setting [2] is: HEK-293T, read-out: RORγt (FL) Reporter Assay A or B, % inhibition.
Where [3] appears, read: HEK-293T, 0.22 μM compound concentration (footnote *******), read-out: RORγt (FL) Reporter Assay A or B, % inhibition.
The mark [4] stands for this setting: read-out: ThermoFluor® Assay, Kd.
Where [5] appears, read: HEK-293T, 2 μM compound concentration, read-out: RORγt (FL) Reporter Assay A or B, % inhibition.

Chain of human RORγt ligand binding domain (RORγt LBD) (P51449 other isoform, or with tags, fused parts or gaps): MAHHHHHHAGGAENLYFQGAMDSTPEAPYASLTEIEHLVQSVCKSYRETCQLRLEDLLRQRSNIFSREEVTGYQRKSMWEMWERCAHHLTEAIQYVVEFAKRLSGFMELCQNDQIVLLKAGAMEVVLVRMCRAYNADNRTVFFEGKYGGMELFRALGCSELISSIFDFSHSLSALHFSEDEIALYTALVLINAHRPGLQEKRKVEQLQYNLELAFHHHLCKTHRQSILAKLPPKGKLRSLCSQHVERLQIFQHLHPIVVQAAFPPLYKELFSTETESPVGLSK
Chain of full-length human RORγt (P51449 other isoform, or with tags, fused parts or gaps): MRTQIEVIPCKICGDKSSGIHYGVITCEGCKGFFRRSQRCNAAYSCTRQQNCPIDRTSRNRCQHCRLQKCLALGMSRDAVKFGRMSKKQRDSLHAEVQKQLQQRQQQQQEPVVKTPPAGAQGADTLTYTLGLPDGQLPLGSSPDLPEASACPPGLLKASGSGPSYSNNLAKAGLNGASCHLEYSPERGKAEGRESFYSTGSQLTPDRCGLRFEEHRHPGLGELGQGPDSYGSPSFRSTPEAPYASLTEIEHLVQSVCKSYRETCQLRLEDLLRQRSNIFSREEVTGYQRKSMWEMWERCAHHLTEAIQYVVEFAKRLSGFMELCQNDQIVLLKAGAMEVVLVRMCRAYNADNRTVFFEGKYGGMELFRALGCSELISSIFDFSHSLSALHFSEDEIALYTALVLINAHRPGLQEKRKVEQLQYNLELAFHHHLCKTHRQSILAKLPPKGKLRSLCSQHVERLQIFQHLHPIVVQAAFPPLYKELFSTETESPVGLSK

Take `CCn1nc(C(=O)NC[C@@H]2CC[C@@H](S(C)(=O)=O)CN2)c(Cl)c1-c1ccc(CC(C)(C)C(F)(F)F)cc1OC(F)F` (stereo in doubt) [Example 10, 4-Chloro-5-(2-(difluoromethoxy)-4-(3,3,3-trifluoro-2,2-dimethylpropyl)phenyl)-1-ethyl-N-(((2S*,5R*)-5-(methylsulfonyl)piperidin-2-yl)methyl)-1H-pyrazole-3-carboxamide hydrobromide]: on full-length human RORγt (setting [2]), the inhibition at 3 µM was 103%. In addition, the IC50 at full-length human RORγt stood at 25 nM. In addition, the Kd in test [1] (ThermoFluor® Assay, Kd) stood at 2.6 nM.
As to `CCn1nc(C(=O)NC[C@]2(O)CC[C@@H](S(C)(=O)=O)CC2)c(Cl)c1-c1ccc(CC(C)(C)C(F)(F)F)cc1C` [Example 183, 4-Chloro-1-ethyl-N-(((1s,4s)-1-hydroxy-4-(methylsulfonyl)cyclohexyl)methyl)-5-(2-methyl-4-(3,3,3-trifluoro-2,2-dimethylpropyl)phenyl)-1H-pyrazole-3-carboxamide], on full-length human RORγt (setting [3]), the inhibition at […] was 70%. In addition, at full-length human RORγt, the half-inhibitory concentration (IC50) was 3.9 nM. For the same molecule, the Kd in test [1] (setting [4]) was determined as 3 nM.
As for `CCn1nc(C(=O)NC[C@@H]2CC[C@@H](S(C)(=O)=O)CO2)c(Cl)c1-c1ccc(CC(C)(C)C(F)(F)F)cc1OC(F)F` (racemic) [Example 14, 4-Chloro-5-(2-(difluoromethoxy)-4-(3,3,3-trifluoro-2,2-dimethylpropyl)phenyl)-1-ethyl-N-(((2RS,5SR)-5-(methylsulfonyl)tetrahydro-2H-pyran-2-yl)methyl)-1H-pyrazole-3-carboxamide], the inhibition at […] on full-length human RORγt (setting [3]) worked out at 99%. Besides, the IC50 on full-length human RORγt was 1.6 nM. Moreover, the Kd in test [1] (ThermoFluor® Assay, Kd) turned out to be 0.14 nM.
Regarding `Cn1nc(C(=O)NC[C@]2(O)CC[C@@H](S(C)(=O)=O)C[C@H]2O)c(Cl)c1-c1ccc(CCCC(F)(F)F)cc1OC(F)F` (stereo in doubt) [Example 160, 4-Chloro-5-(2-(difluoromethoxy)-4-(4,4,4-trifluorobutyl)phenyl)-N-(((1R*,2R*,4R*)-1,2-dihydroxy-4-(methylsulfonyl)cyclohexyl)methyl)-1-methyl-1H-pyrazole-3-carboxamide], the inhibition at 3 µM on full-length human RORγt (setting [2]) is 96%. It took 27 nM to reach half-maximal inhibition at full-length human RORγt (IC50). For the same molecule, in test [1] (ThermoFluor® Assay, Kd), the dissociation constant (Kd) is 39 nM.
Consider `CCn1nc(C(=O)NC[C@]2(O)CC[C@@H](S(C)(=O)=O)CC2)c(Cl)c1-c1ccc(C[C@@H](C)C(F)(F)F)cc1OC(F)F` (single isomer, unassigned) [Example 136, 4-Chloro-5-(2-(difluoromethoxy)-4-((R*)-3,3,3-trifluoro-2-methylpropyl)phenyl)-1-ethyl-N-(((1s,4S)-1-hydroxy-4-(methylsulfonyl)cyclohexyl)methyl)-1H-pyrazole-3-carboxamide], for which the inhibition at […] at full-length human RORγt (HEK-293T, 0.33 μM compound concentration (footnote *****), read-out: RORγt (FL) Reporter Assay A or B, % inhibition) was 89%. Further, the half-maximal inhibitory concentration (IC50) against full-length human RORγt worked out at 3.6 nM. Besides, the dissociation constant Kd in test [1] (ThermoFluor® Assay, Kd) stood at 1.1 nM.
`CCn1nc(C(=O)NC[C@]2(O)CC[C@@H](S(C)(=O)=O)CC2)c(Cl)c1-c1ccc(CCCC(F)(F)F)cc1OC` [Example 81, 4-Chloro-1-ethyl-N-(((1s,4s)-1-hydroxy-4-(methylsulfonyl)cyclohexyl)methyl)-5-(2-methoxy-4-(4,4,4-trifluorobutyl)phenyl)-1H-pyrazole-3-carboxamide]: the inhibition at 2 µM on full-length human RORγt (setting [5]) amounted to 89%. The molecule further yielded a concentration for half-maximal inhibition (IC50) at full-length human RORγt of 13 nM. For the same molecule, in test [1] (setting [4]), the Kd is 5.1 nM.
Take `CCn1nc(C(=O)NC[C@H]2CC[C@H](S(C)(=O)=O)CC2)c(Cl)c1-c1ccc(CC(C)(C)C(F)(F)F)cc1OC(F)F` [Example 2, 4-Chloro-5-(2-(difluoromethoxy)-4-(3,3,3-trifluoro-2,2-dimethylpropyl)phenyl)-1-ethyl-N-(((1r,4r)-4-(methylsulfonyl)cyclohexyl)methyl)-1H-pyrazole-3-carboxamide]: the inhibition at […] at full-length human RORγt (setting [3]) was 94%. The half-maximal inhibitory concentration (IC50) on full-length human RORγt was determined as 4.4 nM. Further, the Kd in test [1] (setting [4]) was 0.16 nM.
In the case of `CCn1nc(C(=O)NC[C@@H]2CC[C@@H](S(C)(=O)=O)C[NH+]2CC(=O)ON)c(Cl)c1-c1ccc(CC(C)(C)C(F)(F)F)cc1OC(F)F` (stereo in doubt) [Example 63, N-(((2S*,5R*)-1-(2-(Aminooxy)-2-oxoethyl)-5-(methylsulfonyl)piperidin-2-yl)methyl)-4-chloro-5-(2-(difluoromethoxy)-4-(3,3,3-trifluoro-2,2-dimethylpropyl)phenyl)-1-ethyl-1H-pyrazole-3-carboxamide Trifluoroacetic Acid Salt], the inhibition at 3 µM on full-length human RORγt (setting [2]) stood at 109%. Also, at full-length human RORγt, half-maximal inhibition (IC50) required 8 nM. Also, in test [1] (ThermoFluor® Assay, Kd), the Kd is 1 nM.
`CCn1nc(C(=O)NC[C@H]2CC[C@H](S(C)(=O)=O)CC2)c(Cl)c1-c1ccc(CCC(F)(F)F)cc1OC(F)(F)F` [Example 189, 4-Chloro-1-ethyl-N-(((1r,4r)-4-(methylsulfonyl)cyclohexyl)methyl)-5-(2-(trifluoromethoxy)-4-(3,3,3-trifluoropropyl)phenyl)-1H-pyrazole-3-carboxamide]: the inhibition at 2 µM on full-length human RORγt (setting [2]) amounted to 47%. The IC50 on full-length human RORγt was more than 2000 nM. The Kd in test [1] (setting [4]) is 4.8 nM.
Consider `CCn1nc(C(=O)NC[C@]2(C(N)=O)CC[C@H](S(C)(=O)=O)CC2)c(Cl)c1-c1ccc(N[C@H](C)C(F)(F)F)cc1OC` [Example 34, N-(((1r,4R)-1-carbamoyl-4-(methylsulfonyl)cyclohexyl)methyl)-4-chloro-1-ethyl-5-(2-methoxy-4-(((R)-1,1,1-trifluoropropan-2-yl)amino)phenyl)-1H-pyrazole-3-carboxamide], for which the inhibition at 6 µM at full-length human RORγt (HEK-293T, 6 μM compound concentration) was 6%. The half-inhibitory concentration (IC50) at full-length human RORγt is more than 6000 nM. Also, the equilibrium dissociation constant (Kd) in test [1] (setting [4]) was 3000 nM.
In the case of `CCn1nc(C(=O)NC[C@H]2CC[C@H](S(C)(=O)=O)CC2)c(C#N)c1-c1ccc(CCC(F)(F)F)cc1OC` [Example 125, 4-Cyano-1-ethyl-5-(2-methoxy-4-(3,3,3-trifluoropropyl)phenyl)-N-(((1r,4r)-4-(methylsulfonyl)cyclohexyl)methyl)-1H-pyrazole-3-carboxamide], the inhibition at 6 µM at full-length human RORγt (HEK-293T) was 85%. Half-maximal inhibition against full-length human RORγt (IC50) required 230 nM. The Kd in test [1] (setting [4]) is 44 nM.
Consider `CCn1nc(C(=O)NC[C@H]2CC[C@H](S(C)(=O)=O)CC2)c(Cl)c1-c1ccc(CCCC(F)(F)F)cc1OC(F)F` [Example 76, 4-Chloro-5-(2-(difluoromethoxy)-4-(4,4,4-trifluorobutyl)phenyl)-1-ethyl-N-(((1r,4r)-4-(methylsulfonyl)cyclohexyl)methyl)-1H-pyrazole-3-carboxamide], for which the inhibition at […] on full-length human RORγt (setting [3]) is 103%. The IC50 at full-length human RORγt was 2.1 nM. Further, in test [1] (setting [4]), the equilibrium dissociation constant (Kd) amounted to 0.28 nM.
With `CCn1nc(C(=O)NC[C@H]2CC[C@H](S(C)(=O)=O)CC2)c(Cl)c1-c1ccc(N[C@H](C)C(F)(F)F)cc1C(F)(F)F` [Example 172, 4-Chloro-1-ethyl-N-(((1r,4R)-4-(methylsulfonyl)cyclohexyl)methyl)-5-(2-(trifluoromethyl)-4-(((R)-1,1,1-trifluoropropan-2-yl)amino)phenyl)-1H-pyrazole-3-carboxamide], on full-length human RORγt (setting [5]), the inhibition at 2 µM came out at 100%. Moreover, the IC50 at full-length human RORγt is 28 nM. In test [1] (setting [4]), the Kd stood at 3.8 nM.
`CCn1nc(C(=O)NC[C@H]2CC[C@@H](S(C)(=O)=O)CN2)c(Cl)c1-c1ccc(CC(C)(C)C(F)(F)F)cc1OC(F)F` (stereo in doubt) [Example 13, 4-Chloro-5-(2-(difluoromethoxy)-4-(3,3,3-trifluoro-2,2-dimethylpropyl)phenyl)-1-ethyl-N-(((2R*,5R*)-5-(methylsulfonyl)piperidin-2-yl)methyl)-1H-pyrazole-3-carboxamide]: the inhibition at 3 µM on full-length human RORγt (setting [2]) came to 90%. Besides, at full-length human RORγt, the half-inhibitory concentration (IC50) was determined as 190 nM. Also, in test [1] (ThermoFluor® Assay, Kd), the Kd turned out to be 110 nM.
Regarding `CCn1nc(C(=O)NC[C@]2(O)CC[C@@H](S(C)(=O)=O)CC2)c(Cl)c1-c1ccc(C[C@H](C)C(F)(F)F)cc1OC(F)F` (single isomer, unassigned) [Example 56, 4-Chloro-5-(2-(difluoromethoxy)-4-((S*)-3,3,3-trifluoro-2-methylpropyl)phenyl)-1-ethyl-N-(((1s,4R)-1-hydroxy-4-(methylsulfonyl)cyclohexyl)methyl)-1H-pyrazole-3-carboxamide], the inhibition at […] at full-length human RORγt (HEK-293T, 0.11 μM compound concentration (footnote ********), read-out: RORγt (FL) Reporter Assay A or B, % inhibition) is 94%. This molecule had an IC50 at full-length human RORγt of 8.7 nM. In test [1] (ThermoFluor® Assay, Kd), the dissociation constant Kd came out at 1 nM.
For `CCn1nc(C(=O)NC[C@H]2CC[C@H](S(C)(=O)=O)CC2)c(Cl)c1-c1ccc(C2(O)CCC(C(F)(F)F)CC2)cc1OC(F)F` (single isomer, unassigned) [Example 114, 4-Chloro-5-(2-(difluoromethoxy)-4-((1s*,4s*)-1-hydroxy-4-(trifluoromethyl)cyclohexyl)phenyl)-1-ethyl-N-(((1r,4r)-4-(methylsulfonyl)cyclohexyl)methyl)-1H-pyrazole-3-carboxamide], at full-length human RORγt (HEK-293T, 1 μM compound concentration (footnote ***), read-out: RORγt (FL) Reporter Assay A or B, % inhibition), the inhibition at 1 µM was found to be 82%. This molecule also registered an IC50 against full-length human RORγt of 410 nM. Besides, the Kd in test [1] (ThermoFluor® Assay, Kd) was found to be 980 nM.
